{"source": "paper PMC11910216", "about": "“Targeting ubiquitin-independent proteasome with small molecule increases susceptibility in pan-KRAS–mutant cancer models” (The Journal of Clinical Investigation, 2025)", "key": {"[1]": {"tested_on": "A427 cells", "assay": "Cell viability assay (CCK-8)", "type": "cell-based", "details": "Homo sapiens, A-427; A427, Lung; Supplemental Table 4", "procedure": "(§2) Cells were seeded into 96-well plates at a density of 1,500 cells per well. Cells were then cultivated at 37°C for different periods (0 hours, 24 hours, 48 hours, 72 hours, 96 hours). Upon measurement, 10 μL CCK-8 (Yeasen, 40203ES80) mixed with 100 μL serum-free medium was added to each well and incubated for 1 hour at 37°C. Plates were shaken, and optical density values were determined at 450 nm using a microplate reader (BioTek, Synergy Neo2)."}, "[2]": {"tested_on": "ubiquitination levels, polyubiquitination of p21", "assay": "Ubiquitination detection / p21 immunoprecipitation", "type": "cell-based, human", "details": "5 μM, 8 hours", "protocol": "(§1) Protein extracts were loaded onto SDS polyacrylamide gels. Gels were transferred onto nitrocellulose membranes, and the membranes were blocked for 1 hour. After overnight incubation with primary antibody at 4°C, the membranes were washed and probed with fluorescent IRDye 800 CW goat anti-rabbit IgG (1:10,000), IRDye 800 CW goat anti-mouse (1:10,000), and IRDye 680 RD goat anti-mouse IgG (1:5,000) antibodies (Cell Signaling Technology). The membranes were then imaged with the Odyssey Infrared Imaging System (LI-COR Biosciences). The primary antibodies used were mouse anti–β-actin (MBL, M177-3), rabbit anti-REGγ (Abcam, ab157157), rabbit anti-KRAS (Abcam, ab275876), rabbit anti-NRF2 (Abcam, ab137550), mouse anti-GAPDH (Proteintech, 60004-1-Ig), anti-FLAG tag (Solarbio, K200001M), anti-HA tag (Abcam, ab9110), rabbit anti-α7 (Abcam, ab133502), rabbit anti-LATS1 (Cell Signaling Technology, 3477), rabbit anti-IκBε (Abcam, ab13413), rabbit anti-p16 (Proteintech, 10883-1-AP), mouse anti-p21 (BD Biosciences, 612234), rabbit anti-PARP (Cell Signaling Technology, 9542), and rabbit anti–caspase-3 ([…], 9662).\nCells were washed with PBS and lysed with RIPA lysis buffer (50 mM Tris-HCl [pH 7.5], 150 mM NaCl, 1% NP-40, and 0.1% SDS). Cell lysates were then centrifuged for 20 minutes at 13,400g at 4°C. […]"}, "[3]": {"tested_on": "Panc-28 cells", "assay": "Cell viability assay (CCK-8)", "type": "cell-based", "details": "Panc-28 (KRAS-MUT); 72 hours", "procedure": "as §2"}, "[4]": {"tested_on": "cleaved PARP and cleaved caspase-3", "assay": "Immunoblotting of apoptosis-related proteins", "type": "cell-based, human", "protocol": "as §1"}, "[5]": {"tested_on": "Calu1-KRASY96D cells (G12C/Y96D)", "assay": "Cell viability assay (CellTiter-Glo), 72 hours, alone or in combination", "details": "for cell viability: Calu1-KRASY96D, in % (unit assumed)", "procedure": "Cells were seeded into 96-well plates at a density of 1,500 cells per well. […] Upon measurement, 10 μL CCK-8 (Yeasen, 40203ES80) mixed with 100 μL serum-free medium was added to each well and incubated for 1 hour at 37°C. Plates were shaken, and optical density values were determined at 450 nm using a microplate reader (BioTek, Synergy Neo2).\nCombination index was calculated using Compusyn software version 1.0, and the synergistic effects were determined by the Chou-Talalay method ([51]).\n(§3) (A and B) Cell viability assays performed with Calu1 cells infected\nwith retrovirus packaging KRAS (G12C, G12C/G13D or G12C/Y96D).\nmeasured with CellTiter-Glo."}, "[6]": {"tested_on": "Calu1 cells infected with KRAS G12C", "assay": "cells", "type": "cell-based, human", "procedure": "as §3\nwith retrovirus packaging KRAS (G12C, G12C/G13D or G12C/Y96D). Cell lines were\nmeasured with CellTiter-Glo. (C and D) Calu1-KRASG13D (C) and Calu1- KRASY96D\n(KRASG12C inhibitor) alone or in combination for 72 hours, and the cell viability was"}}, "note": "Where “and” joins values, the source holds several entries; their conditions need not be identical. Equal entries are not always repeated.", "data": [{"smiles": "COc1ccc(C2C(C#N)=C(N)Oc3[nH]ncc32)cc1COc1ccc(Cl)cc1", "note": "(stereo not shown) [RLY01]", "values": [{"measurement": "IC50", "setting": "[1]", "result": 13.8, "unit": "µM"}, {"measurement": "polyubiquitination level of p21", "setting": "[2]; anti-p21 immunoprecipitation", "result": "did not alter the polyubiquitination level of p21"}, {"measurement": "ubiquitination levels", "setting": "[2]; HCT116-WT cells", "result": "did not affect ubiquitination levels"}, {"measurement": "IC50", "setting": "[3]", "result": 14.4, "unit": "µM"}, {"measurement": "levels of cleaved PARP and cleaved caspase-3", "setting": "[4]; HCT15, A549, HCT116 cells, concentration-dependent and REGγ-dependent", "result": "increased the levels of the apoptosis-related proteins cleaved PARP (Cl-PARP) and cleaved caspase-3 (Cl-caspase-3)"}, {"measurement": "apoptosis (cleaved PARP, cleaved caspase-3)", "setting": "[4]; HCT116-REGγ-KO cells", "result": "no substantial effect on apoptosis"}, {"measurement": "cell viability", "setting": "[5]; 0.390625 μM", "result": "109.013 and 124.79 and 101.198"}, {"measurement": "cell viability", "setting": "[5]; 0.78125 μM", "result": "114.312 and 121.448"}, {"measurement": "cell viability", "setting": "[5]; 1.5625 μM", "result": "115.364 and 91.5058 and 113.66"}, {"measurement": "cell viability", "setting": "[5]; 3.125 μM", "result": "104.087 and 113.194"}, {"measurement": "cell viability", "setting": "[5]; 6.25 μM", "result": "87.3918 and 78.2319"}, {"measurement": "cell viability", "setting": "[5]; 12.5 μM", "result": "88.1108 and 98.7485"}, {"measurement": "cell viability", "setting": "[5]; 25 μM", "result": "37.8911 and 40.008"}, {"measurement": "cell viability", "setting": "[5]; 50 μM", "result": "16.5224 and 17.0816"}, {"measurement": "cell viability", "setting": "[5]; 100 μM", "result": "16.1363 and 16.3893"}, {"measurement": "viability at 0.78125 µM", "setting": "[5]; Homo sapiens, read-out: cell viability, Calu1-KRASY96D, 0.78125 μM", "result": 104, "unit": "%"}, {"measurement": "viability at 3.125 µM", "setting": "[5]; Homo sapiens, read-out: cell viability, Calu1-KRASY96D, 3.125 μM", "result": 99.3, "unit": "%"}, {"measurement": "viability at 6.25 µM", "setting": "[5]; Homo sapiens, read-out: cell viability, Calu1-KRASY96D, 6.25 μM", "result": 71.3, "unit": "%"}, {"measurement": "viability at 12.5 µM", "setting": "[5]; Homo sapiens, read-out: cell viability, Calu1-KRASY96D, 12.5 μM", "result": 92.7, "unit": "%"}, {"measurement": "viability at 25 µM", "setting": "[5]; Homo sapiens, read-out: cell viability, Calu1-KRASY96D, 25 μM", "result": 43.6, "unit": "%"}, {"measurement": "viability at 50 µM", "setting": "[5]; Homo sapiens, read-out: cell viability, Calu1-KRASY96D, 50 μM", "result": 16.3, "unit": "%"}, {"measurement": "viability at 100 µM", "setting": "[5]; Homo sapiens, read-out: cell viability, Calu1-KRASY96D, 100 μM", "result": 16.2, "unit": "%"}, {"measurement": "cell viability", "setting": "[6]; Calu1, 0.390625 μM, 0.390625 µM", "result": "102.753 and 93.4181"}, {"measurement": "cell viability", "setting": "[6]; Calu1, 0.78125 μM, 0.78125 µM", "result": "107.421 and 102.032"}, {"measurement": "cell viability", "setting": "[6]; Calu1, 1.5625 μM, 1.5625 µM", "result": "95.8437 and 90.7303"}, {"measurement": "cell viability", "setting": "[6]; Calu1, 3.125 μM, 3.125 µM", "result": "96.3551 and 85.8136"}, {"measurement": "cell viability", "setting": "[6]; Calu1, 6.25 μM, 6.25 µM", "result": "67.1693 and 71.5484"}, {"measurement": "cell viability", "setting": "[6]; Calu1, 12.5 μM, 12.5 µM", "result": "52.9959 and 57.0473"}, {"measurement": "cell viability", "setting": "[6]; Calu1, 25 μM, 25 µM", "result": "46.8992 and 44.4474"}, {"measurement": "cell viability", "setting": "[6]; Calu1, 50 μM, 50 µM", "result": "35.3612 and 29.2251"}, {"measurement": "cell viability", "setting": "[6]; Calu1, 100 μM, 100 µM", "result": "20.4537 and 21.2928"}, {"measurement": "viability at 0.390625 µM", "setting": "[6]; Homo sapiens, Calu-1, read-out: cell viability, Calu1, 0.390625 μM", "result": 104, "unit": "%"}, {"measurement": "viability at 0.78125 µM", "setting": "[6]; Homo sapiens, Calu-1, read-out: cell viability, Calu1, 0.78125 μM", "result": 90.3, "unit": "%"}, {"measurement": "viability at 1.5625 µM", "setting": "[6]; Homo sapiens, Calu-1, read-out: cell viability, Calu1, 1.5625 μM", "result": 97, "unit": "%"}, {"measurement": "viability at 3.125 µM", "setting": "[6]; Homo sapiens, Calu-1, read-out: cell viability, Calu1, 3.125 μM", "result": 96.9, "unit": "%"}, {"measurement": "viability at 6.25 µM", "setting": "[6]; Homo sapiens, Calu-1, read-out: cell viability, Calu1, 6.25 μM", "result": 69.8, "unit": "%"}, {"measurement": "viability at 12.5 µM", "setting": "[6]; Homo sapiens, Calu-1, read-out: cell viability, Calu1, 12.5 μM", "result": 53.6, "unit": "%"}, {"measurement": "viability at 25 µM", "setting": "[6]; Homo sapiens, Calu-1, read-out: cell viability, Calu1, 25 μM", "result": 47.7, "unit": "%"}, {"measurement": "viability at 50 µM", "setting": "[6]; Homo sapiens, Calu-1, read-out: cell viability, Calu1, 50 μM", "result": 31.6, "unit": "%"}, {"measurement": "viability at 100 µM", "setting": "[6]; Homo sapiens, Calu-1, read-out: cell viability, Calu1, 100 μM", "result": 21.2, "unit": "%"}]}]}
